Measurements: patent US20130303788A1, “METHOD OF PRODUCING BIPHENOLIC COMPOUND, NOVEL BIPHENYL COMPOUND AND SYNTHESIS METHOD THEREOF, AND PHARMACEUTICAL COMPOSITION FOR TREATING PARKINSON'S DISEASE” (Tzu Chi University, priority 2012, published 2013)

How the values were obtained:
[1] = system: SH-SY5Y human neuroblastoma cells; assay: Effects on oxidative stress (TBHP or CHP), MTT assay; type: cell-based; details: 10 μM for 30 minutes, then CHP 300 μM for 3 hours; vs pathological control; FIG. 9
Protocol: 3-(4,5-Dimethylthiazol-2-yl)-2,5-diphenyltetrazolium bromide (MTT) assay was conducted generally as follows. A MTT solution was added to culture of the cells in the respective well so that a MTT concentration of 0.5 mg/mL was reached, followed by cultivation for 4 hours. The liquid in the respective well was removed, and dimethylsulfoxide (DMSO) was added into the respective well to dissolve formazan dye. Absorbance of the mixture in the respective well at 570 nm (OD570) was measured using an OPTImax microplate reader (Molecular Devices).
The SH-SY5Y human neuroblastoma cells were respectively treated with products 1, 2, 3, 4, 5, 7, and 3,3′-diallyl-biphenyl-4,4′-diol (compound 55) (10 μM) for 30 minutes. 3,3′-diallyl-biphenyl-4,4′-diol (compound 55) was prepared from commercially available 4,4′-biphenol (compound 54) generally according to the method as described in Ablard, F. et al., Bioorg. Med. Chem. Lett. 2007, 17, 4428. Subsequently, the SH-SY5Y human neuroblastoma cells were exposed to cumene hydroperoxide (CHP) or tert-butyl hydroperoxide (TBHP) (300 μM, Riedel-de Haen) for 3 hours after the treatment with the respective biphenolic compound of formula (I).
Cell viability was evaluated as follows. The SH-SY5Y human neuroblastoma cells were subjected to the MTT assay as described in section 1 of General Procedures. The relative cell viability (%) was calculated by substituting the absorbance into the following formula:
where D=relative cell viability • E=OD570 of the pathological control, or the SH-SY5Y human neuroblastoma cells treated with the respective biphenolic compound of formula (I) • F=OD570 of the normal control The obtained data were subjected to the statistical analysis as described in section 5 of General Procedures.

[2] = system: mouse model of PD (6-OHDA unilateral striatal lesion); assay: Beam walking test, incoordination induced by 6-OHDA; type: in vivo, NMRI mice
Protocol: Product 1 was administered intraperitoneally to NMRI mice at a dose of 5 mg/kg. 30 minutes after the administration of product 1, the NMRI mice were subjected to 6-OHDA injection according to the method as described in section 2 of General Procedures.
NMRI mice into which the vehicle was injected, and which were not treated with product 1 before the injection of the vehicle, served as a sham operated control. NMRI mice that were subjected to 6-OHDA injection and that were not treated with product 1 before the 6-OHDA injection served as a pathological control.
The NMRI mice were subjected to the beam walking test as described in the following subsection 3 on Day 1 and Day 7 after the injection of 6-OHDA or the vehicle. The obtained data were subjected to the statistical analysis as described in section 5 of General Procedures.
NMRI mice were subjected to 6-OHDA injection according to the method as described in section 2 of General Procedures. On Day 7 after the 6-OHDA injection, product 1 was administered intraperitoneally to the NMRI mice at a dose of 5 mg/kg respectively for 7 and 14 consecutive days.
NMRI mice into which a vehicle (saline containing 0.02% ascorbic acid) was injected (generally according to the method as described in section 2 of General Procedures, except that 6-OHDA was not injected), and which were not treated with product 1 after the injection of the vehicle, served as a sham operated control. NMRI mice that were subjected to 6-OHDA injection and that were not treated with product 1 after the 6-OHDA injection served as a pathological control.
The NMRI mice were subjected to the beam walking test as described in the following subsection 3 on Day 14 or Day 21 after the injection of 6-OHDA or the vehicle. The obtained data were subjected to the statistical analysis as described in section 5 of General Procedures.
A beam walking test was conducted under proper conditions, e.g., silence and illumination, so as to evaluate coordination of the respective NMRI mouse. The respective NMRI mouse was placed at a starting point of a beam having a height of 50 cm from a supporting surface, equipped with an escape plateform at each end. […] Before the beam walking test, the respective mouse was trained to walk through the beam for 3 days so that the escape latency thereof was less than 20 seconds. The total travel distance was measured.

[3] = system: excitotoxicity induced by excitatory amino acids; details: Lin Yi-Ruu et al. (2006); cited from earlier work

## C=CCc1ccc(O)c(-c2ccc(O)c(CC=C)c2)c1 [product 1, 5,3′-Diallyl-biphenyl-2,4′-diol]
[1]
  prevention of cell death (relative cell viability) after exposure to CHP: significantly prevented cell death
[2]; 5 mg/kg i.p.
  14-day post-treatment compared to 7-day post-treatment, motor incoordination: more effectively alleviating the motor incoordination
[2]; 5 mg/kg i.p. 30 minutes before 6-OHDA
  duration of the effect of the pretreatment on motor incoordination: at least 7 days
[2]; 5 mg/kg i.p. 30 minutes before 6-OHDA, Day 1 and Day 7 after 6-OHDA, FIGS. 18(A), 18(B)
  motor incoordination (beam walking), pretreatment: significantly alleviated the motor incoordination
[2]; 5 mg/kg i.p. for 7 days starting Day 7 after 6-OHDA, tested Day 14, FIG. 19
  motor incoordination (beam walking), 7-day post-treatment: significantly alleviated the motor incoordination
[2]; 5 mg/kg i.p. for 14 days starting Day 7 after 6-OHDA, tested Day 21, FIG. 19
  motor incoordination (beam walking), 14-day post-treatment: significantly alleviated the motor incoordination
[3]
  neuroprotective effects via anti-oxidative abilities and antagonist actions against excitotoxicity: able to exert neuroprotective effects
